Measured values taken from ChEMBL document CHEMBL4266042, “Total Synthesis of Norsampsones A and B, Garcinielliptones N and O, and Hyperscabrin A” (J Nat Prod, 2018).

Legend:
Assay type in all cases: functional, cell-based
A549 = experiment: Cytotoxicity against human A549 cells after 3 to 5 days by CellTiter-Glo assay
SNU1 = experiment: Cytotoxicity against human SNU1 cells after 3 to 5 days by CellTiter-Glo assay
KMS-11 = experiment: Cytotoxicity against human KMS11 cells after 3 to 5 days by CellTiter-Glo assay
786-0 = experiment: Cytotoxicity against human 786-O cells after 3 to 5 days by CellTiter-Glo assay

Measured: IC50

CC(C)=CC[C@@H]1C[C@H](CC=C(C)C)C(C)(C)[C@@H](C(=O)C(C)C)C1=O
> 10 µM: all assays above

COC(=O)[C@]1(CC=C(C)C)C[C@H](CC=C(C)C)C(C)(C)[C@@H](C(=O)C(C)C)C1=O
> 10 µM: all assays above

CC(C)=CCCC(=O)[C@]1(CC=C(C)C)C[C@H](CC=C(C)C)C(C)(C)[C@@H](C(=O)c2ccccc2)C1=O
> 10 µM: all assays above

CC(C)=CC[C@@H]1C[C@H](CC=C(C)C)C(C)(C)[C@H](C(=O)C(C)C)C1=O
> 10 µM: all assays above

COC(=O)[C@]1(CC=C(C)C)C[C@H](CC=C(C)C)C(C)(C)[C@H](C(=O)C(C)C)C1=O
> 10 µM: all assays above

CC(C)=CCCC(=O)[C@]1(CC=C(C)C)C[C@H](CC=C(C)C)C(C)(C)[C@H](C(=O)c2ccccc2)C1=O
> 10 µM: all assays above

COC(=O)[C@@]1(CC=C(C)C)C[C@H](CC=C(C)C)C(C)(C)[C@H](C(=O)C(C)C)C1=O
> 10 µM: all assays above
